Measured values taken from patent US9580416B2, “Inhibitors of Bruton's tyrosine kinase” (PHARMACYCLICS LLC, priority 2014, dated 2017).

Target: Btk (Homo sapiens, UniProt Q06187)
Assay: Btk kinase activity, TR-FRET assay
Format: biochemical
Settings: read-out: Btk (IC50)
Protocol: Btk kinase activity is determined using a time-resolved fluorescence resonance energy transfer (TR-FRET) methodology. Measurements are performed in a reaction volume of 50 μL using 96-well assay plates. Kinase enzyme, inhibitor, ATP (at the Km for the kinase), and 1 […] (Biotin-AVLESEEELYSSARQ-NH2) are incubated in a reaction buffer composed of 20 mM Tris, 50 mM NaCl, MgCl2 (5-25 mM depending on the kinase), MnCl2 (0-10 mM), 1 mM DTT, 0.1 mM EDTA, 0.01% bovine serum albumin, 0.005% Tween-20, and 10% DMSO at pH 7.4 for one hour. The reaction is quenched by the addition of 1.2 equivalents of EDTA (relative to divalent cation) in 25 μL of 1× Lance buffer (Perkin-Elmer). Streptavidin-APC (Perkin-Elmer) and Eu-labeled p-Tyr100 antibody (Perkin-Elmer) in 1× Lance buffer are added in a 25 μL volume to give final concentrations of 100 nM and 2.5 nM, respectively, and the mixture is allowed to incubate for one hour. The TR-FRET signal is measured on a multimode plate reader with an excitation wavelength (λEx) of 330 nm and detection wavelengths (λEm) of 615 and 665 nm. Activity is determined by the ratio of the fluorescence at 665 nm to that at 615 nm. For each compound, enzyme activity is measured at various concentrations of compound. Negative control reactions are performed in the absence of inhibitor in replicates of six, and two no-enzyme controls are used to determine baseline fluorescence levels. Inhibition constants, Ki(app), ware obtained using the program BatchKi (Kuzmic et al. (2000), Anal. Biochem. 286:45-50). IC50s are obtained according to the equation: IC50={Ki(app)/(1+[ATP]/Km^ATP)}+[E]total/2;
For all kinases, [ATP]=Km^ATP, [Btk]total=0.5 nM and [Lck]total=6 nM.

Btk, sequence (Q06187 whole entry): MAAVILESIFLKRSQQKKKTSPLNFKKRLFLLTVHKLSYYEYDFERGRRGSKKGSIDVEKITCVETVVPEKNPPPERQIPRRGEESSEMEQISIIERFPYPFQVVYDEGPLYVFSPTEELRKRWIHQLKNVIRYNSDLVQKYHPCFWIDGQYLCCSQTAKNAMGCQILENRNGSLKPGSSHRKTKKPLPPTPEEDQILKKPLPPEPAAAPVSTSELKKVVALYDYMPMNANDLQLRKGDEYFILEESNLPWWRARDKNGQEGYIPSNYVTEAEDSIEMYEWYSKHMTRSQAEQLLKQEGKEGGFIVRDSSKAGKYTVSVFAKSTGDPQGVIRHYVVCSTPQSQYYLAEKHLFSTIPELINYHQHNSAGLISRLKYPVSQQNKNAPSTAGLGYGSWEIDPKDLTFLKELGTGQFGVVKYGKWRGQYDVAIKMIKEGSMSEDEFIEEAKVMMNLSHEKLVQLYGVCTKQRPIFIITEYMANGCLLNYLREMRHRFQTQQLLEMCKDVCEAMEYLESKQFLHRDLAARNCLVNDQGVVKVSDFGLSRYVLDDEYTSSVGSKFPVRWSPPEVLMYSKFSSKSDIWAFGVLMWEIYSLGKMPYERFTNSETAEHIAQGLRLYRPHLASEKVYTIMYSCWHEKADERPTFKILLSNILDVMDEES

Row | IC50 [nM] | Compound
1 | < 100 | C=CC(=O)N1CCC(CNc2n[nH]c3nccc(Oc4ccc(Oc5ccccc5)cc4)c23)CC1 [compound 266, 1-(4-((4-(4-phenoxyphenoxy)-1H-pyrazolo[3,4-b]pyridin-3-ylamino)methyl)piperidin-1-yl)prop-2-en-1-one]
2 | 100 to 1000 | CN(C/C=C/C(=O)N1CC[C@@H](N(C(=O)/C=C/CN(C)C2CC2)c2n[nH]c3ncnc(Oc4ccc(Oc5ccccc5)cc4)c23)C1)C1CC1 [compound 49]
3 | 100 to 1000 | C=CC(=O)N1CCC[C@@H](Nc2n[nH]c3nccc(Oc4ccc(-c5cc(C(F)(F)F)ccn5)cc4)c23)C1 [compound 155]
4 | > 10000 | CC(C)NC(=O)Nc1ccc(Oc2ccnc3[nH]nc(N[C@@H]4CCCN(C(=O)/C=C/CN(C)C5CC5)C4)c23)cc1 [compound 147]
5 | < 100 | CN(C/C=C/C(=O)N1CCC[C@@H](Nc2n[nH]c3nccc(Oc4ccc(C(=O)Nc5cc(C(F)(F)F)ccn5)cc4)c23)C1)C1CC1 [compound 212, 4-[(3-{[(3R)-1-[(2E)-4-[cyclopropyl(methyl)amino]but-2-enoyl]piperidin-3-yl]amino}-1H-pyrazolo[3,4-b]pyridin-4-yl)oxy]-N-[4-(trifluoromethyl)pyridin-2-yl]benzamide]
6 | < 100 | CC#CC(=O)N1CCC[C@@H](Nc2n[nH]c3nccc(Oc4ccc(C(=O)Nc5ncc(C#N)s5)cc4)c23)C1 [compound 168]
7 | 100 to 1000 | Cc1cc(NC(=O)c2cccc(Nc3ccnc4[nH]nc(O[C@@H]5CCCNC5)c34)c2)ccc1C(C)C [compound 259, (R)—N-(4-isopropyl-3-methylphenyl)-3-(3-(piperidin-3-yloxy)-1H-pyrazolo[3,4-b]pyridin-4-ylamino)benzamide]
8 | < 100 | c1ccc(Oc2ccc(Oc3ccnc4[nH]nc(NC5CCNCC5)c34)cc2)cc1 [compound 261]
9 | 100 to 1000 | CN(C)C/C=C/C(=O)N1CC[C@@H](Nc2n[nH]c3nccc(Oc4ccc(Oc5ccccc5)cc4C(N)=O)c23)C1 [compound 41]
10 | < 100 | C=CC(=O)N1CCC[C@@H](CNc2n[nH]c3nccc(Oc4ccc(Oc5ccccc5)cc4)c23)C1 [compound 267, (S)-1-(3-((4-(4-phenoxyphenoxy)-1H-pyrazolo[3,4-b]pyridin-3-ylamino)methyl)piperidin-1-yl)prop-2-en-1-one]
11 | 1000 to 10000 | Cc1c[nH]c(NC(=O)c2ccc(Oc3ccnc4[nH]nc(N[C@@H]5CCCN(C(=O)/C=C/CN(C)C6CC6)C5)c34)cc2)n1 [compound 157]
12 | 100 to 1000 | Cc1cc(NC(=O)c2cccc(Oc3ccnc4[nH]nc(N[C@@H]5CCNC5)c34)c2)ccc1C(C)C [compound 249, (R)—N-(4-isopropyl-3-methylphenyl)-3-(3-(pyrrolidin-3-ylamino)-1H-pyrazolo[3,4-b]pyridin-4-yloxy)benzamide]
13 | < 100 | CN(C/C=C/C(=O)N1CC[C@@H](N2CC(=O)N(c3ccc(Oc4ccccc4)cc3)c3ccnc4[nH]nc2c34)C1)C1CC1 [compound 239]
14 | < 100 | C=CC(=O)N1CC[C@@H](Nc2n[nH]c3nccc(Oc4ccc(C(=O)Nc5cc(C(F)(F)F)ccn5)cc4)c23)C1 [compound 171]
15 | 100 to 1000 | Cc1cc(NC(=O)c2cccc(Oc3ccnc4[nH]nc(N[C@@H]5CCCNC5)c34)c2)ccc1C(C)C [compound 258, (R)—N-(4-isopropyl-3-methylphenyl)-3-(3-(piperidin-3-ylamino)-1H-pyrazolo[3,4-b]pyridin-4-yloxy)benzamide]
16 | 1000 to 10000 | Cc1cnc(-c2cccc(Oc3ccnc4[nH]nc(N[C@@H]5CCCN(C(=O)/C=C/CN(C)C6CC6)C5)c34)c2)s1 [compound 150]
17 | > 10000 | Cc1cnc(NC(=O)[C@H]2CC[C@H](Oc3ccnc4[nH]nc(N[C@@H]5CCCN(C(=O)/C=C/CN(C)C6CC6)C5)c34)CC2)s1 [compound 152]
18 | > 10000 | Cc1nnc(NC(=O)c2ccc(Oc3ccnc4[nH]nc(N[C@@H]5CCCN(C(=O)/C=C/CN(C)C6CC6)C5)c34)cc2)s1 [compound 209, 4-[(3-{[(3R)-1-[(2E)-4-[cyclopropyl(methyl)amino]but-2-enoyl]piperidin-3-yl]amino}-1H-pyrazolo[3,4-b]pyridin-4-yl)oxy]-N-(5-methyl-1,3,4-thiadiazol-2-yl)benzamide]
19 | 100 to 1000 | O=C(c1cccc(Oc2ccnc3[nH]nc(N[C@@H]4CCCNC4)c23)c1)N1CCCCC1 [compound 255, (R)-piperidin-1-yl(3-(3-(piperidin-3-ylamino)-1H-pyrazolo[3,4-b]pyridin-4-yloxy)phenyl)methanone]

Row | IC50 [nM] | Compound
20 | 100 to 1000 | CC(=O)N1CCN(C(=O)c2cccc(Oc3ccnc4[nH]nc(N[C@@H]5CCCNC5)c34)c2)CC1 [compound 257, (R)-1-(4-(3-(3-(piperidin-3-ylamino)-1H-pyrazolo[3,4-b]pyridin-4-yloxy)benzoyl)piperazin-1-yl)ethanone]
21 | < 100 | C=CC(=O)N1CC[C@H](CNc2n[nH]c3nccc(Oc4ccc(Oc5ccccc5)cc4)c23)C1 [compound 268, (R)-1-(3-((4-(4-phenoxyphenoxy)-1H-pyrazolo[3,4-b]pyridin-3-ylamino)methyl)pyrrolidin-1-yl)prop-2-en-1-one]
22 | 100 to 1000 | CCC(=O)N1CCC[C@@H](N(C(=O)CC)c2n[nH]c3ncnc(Oc4ccc(Oc5ccccc5)cc4)c23)C1 [compound 52]
23 | 100 to 1000 | CC#CC(=O)N1CCC[C@@H](Nc2n[nH]c3nccc(Oc4ccc(C(=O)N5CCCC(C(F)(F)F)C5)cc4)c23)C1 (stereo partly shown) [compound 163]
24 | 100 to 1000 | Cc1cc(NC(=O)c2cccc(Oc3ccnc4[nH]nc(N[C@H]5CCNC5)c34)c2)ccc1C(C)C [compound 260, (S)—N-(4-isopropyl-3-methylphenyl)-3-(3-(pyrrolidin-3-ylamino)-1H-pyrazolo[3,4-b]pyridin-4-yloxy)benzamide]
25 | 100 to 1000 | CN(C/C=C/C(=O)N1CCC[C@@H](Nc2n[nH]c3nccc(Oc4ccc(NC(=O)Nc5cc(C(F)(F)F)ccn5)cc4)c23)C1)C1CC1 [compound 214, 3-{4-[(3-{[(3R)-1-[(2E)-4-[cyclopropyl(methyl)amino]but-2-enoyl]piperidin-3-yl]amino}-1H-pyrazolo[3,4-b]pyridin-4-yl)oxy]phenyl}-1-[4-(trifluoromethyl)pyridin-2-yl]urea]
26 | > 10000 | CC#CC(=O)N1CCC[C@@H](Nc2n[nH]c3nccc(Oc4ccc(-c5ccc(C(F)(F)F)cn5)cc4)c23)C1 [compound 206, 1-[(3R)-3-[(4-{4-[5-(trifluoromethyl)pyridin-2-yl]phenoxy}-1H-pyrazolo[3,4-b]pyridin-3-yl)amino]piperidin-1-yl]but-2-yn-1-one]
27 | 100 to 1000 | c1ccc(Oc2ccc(Oc3ccnc4[nH]nc(NC[C@H]5CCNC5)c34)cc2)cc1 [compound 264, (S)-4-(4-phenoxyphenoxy)-N-(pyrrolidin-3-ylmethyl)-1H-pyrazolo[3,4-b]pyridin-3-amine]
28 | < 100 | C=CC(=O)N1CCC[C@@H](Nc2n[nH]c3nccc(Oc4ccc(C(=O)Nc5ncc(C#N)s5)cc4)c23)C1 [compound 166]
29 | < 100 | C=CC(=O)N1CCC[C@@H](Nc2n[nH]c3nccc(Oc4ccc(C(=O)N5CCCC(C(F)(F)F)C5)cc4)c23)C1 (stereo partly shown) [compound 160]
30 | < 100 | CC#CC(=O)N1CC[C@@H](Nc2n[nH]c3nccc(Oc4ccc(C(=O)Nc5cc(C(F)(F)F)ccn5)cc4)c23)C1 [compound 174]
31 | < 100 | C=CC(=O)N1CCC[C@@H](Nc2n[nH]c3nccc(Oc4ccc(C(=O)N(C)c5ncc(C)s5)cc4)c23)C1 [compound 211, N-methyl-N-(5-methyl-1,3-thiazol-2-yl)-4-[(3-{[(3R)-1-(prop-2-enoyl)piperidin-3-yl]amino}-1H-pyrazolo[3,4-b]pyridin-4-yl)oxy]benzamide]
32 | 100 to 1000 | Cc1cc(NC(=O)c2cccc(Nc3ccnc4[nH]nc(N[C@@H]5CCCNC5)c34)c2)ccc1C(C)C [compound 253, (R)—N-(4-isopropyl-3-methylphenyl)-3-(3-(piperidin-3-ylamino)-1H-pyrazolo[3,4-b]pyridin-4-ylamino)benzamide]
33 | 100 to 1000 | O=C(NC1CCCCC1)c1cccc(Oc2ccnc3[nH]nc(N[C@@H]4CCCNC4)c23)c1 [compound 254, (R)—N-cyclohexyl-3-(3-(piperidin-3-ylamino)-1H-pyrazolo[3,4-b]pyridin-4-yloxy)benzamide]
34 | > 10000 | CCNC(=O)Nc1ccc(Oc2ccnc3[nH]nc(N[C@@H]4CCCN(C(=O)/C=C/CN(C)C5CC5)C4)c23)cc1 [compound 136]
35 | < 100 | Nc1ncnc2[nH]nc(-c3ccc(Oc4ccccc4)cc3)c12 [compound 121, 3-(4-phenoxyphenyl)-1H-pyrazolo[3,4-b]pyrimidin-4-amine]
36 | 1000 to 10000 | CC#CC(=O)N1CCC[C@@H](Nc2n[nH]c3nccc(Oc4ccc(C(=O)Nc5nnc(C)s5)cc4)c23)C1 [compound 180]
37 | 100 to 1000 | CC#CC(=O)N1CCC[C@@H](Nc2n[nH]c3nccc(Oc4ccc(-c5nc6ncccc6o5)cc4)c23)C1 [compound 170]
